Laboratory results from patent US20150335677A1, “Argon is a mu opioid receptor antagonist” (priority 2014, published 2015).

Key:
[1] = molecular target: T1, type 2 vesicular monoamine transporter (Rattus norvegicus, UniProt Q01827); experiment: Carrier-mediated and KCl-evoked dopamine release in nucleus accumbens brain slices with amphetamine; format: cell-based
T1 construct: Coronal brain slices (400 μm thickness) including the nucleus accumbens; from tissue; host or cells: rat nucleus accumbens brain slices
T1 sequence (Q01827 whole entry): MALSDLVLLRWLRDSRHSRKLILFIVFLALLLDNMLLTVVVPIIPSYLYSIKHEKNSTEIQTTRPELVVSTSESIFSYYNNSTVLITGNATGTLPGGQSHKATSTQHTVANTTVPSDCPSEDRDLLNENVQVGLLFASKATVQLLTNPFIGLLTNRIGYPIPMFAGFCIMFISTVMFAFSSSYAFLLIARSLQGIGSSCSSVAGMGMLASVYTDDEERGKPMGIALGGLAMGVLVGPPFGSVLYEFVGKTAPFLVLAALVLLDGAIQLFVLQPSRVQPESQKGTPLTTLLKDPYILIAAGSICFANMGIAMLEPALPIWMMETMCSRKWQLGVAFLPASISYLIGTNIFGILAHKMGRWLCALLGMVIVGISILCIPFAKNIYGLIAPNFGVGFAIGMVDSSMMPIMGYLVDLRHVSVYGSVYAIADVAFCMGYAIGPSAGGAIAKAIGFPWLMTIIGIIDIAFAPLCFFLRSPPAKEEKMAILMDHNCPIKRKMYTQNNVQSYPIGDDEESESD
Method: Rats were killed by decapitation and the brains were carefully removed and placed in ice-cold artificial cerebrospinal fluid (aCSF). Coronal brain slices (400 μm thickness) including the nucleus accumbens (anteriority: −1.2 to +2 mm from the bregma) were cut using a tissue chopper. Before being used, brain slices (n=4 per condition) were allowed to recover at room temperature for 1 hour in oxygenated a CSF. […] Control slices were treated with saline solution and air. Carrier-mediated and depolarization-dependent (KCl: 100 mM) dopamine release in the nucleus accumbens were monitored using a polarograph and standard glass-encased nafion-precoated carbon fiber electrodes (David H. N. et al., Biol. Psych., 2006). […] Therefore, in the experiments with argon, argon was only administered after Peak 1 (P1) KCl-evoked dopamine release had returned to baseline (B2).

Sprague-Dawley rats [2] = experiment: Stress level: righting reflex when handled abdomen side up; format: in vivo, rat; conditions: argon 75 vol % 3 h day 1 to day 3 vs air; recorded after treatment on days 1 to 3 and on day 7; P<0.05
Method: (§1) In a first series of experiments, male adult Sprague-Dawley rats (n=6 per group) were treated for 3 h from day 1 to day 3 with ‘medical’ air (composed of 75 vol % nitrogen and 25 vol % oxygen) or argon at 75 vol % (with the remainder being oxygen) at a flow rate of 5 L/min in a closed chamber. None of the animals were habituated to handling with their abdomen side up. Immediately after being treated with either air or argon from day 1 to day 3, and on day 7, rats were handled by an experimenter blind of the rats' gas treatment, with their back placed in the palm of the experimenter and their abdomen side up. The rat's stress level was rated both by the experimenter and an additional observer, also blind of the rats' gas treatment, by counting the number of righting reflex of the animals during a 1-min period on a scale of 0 to 3 with 0 being a total absence of righting reflex and 3 being repetitive righting reflexes. Then, the rats' social interaction was also evaluated. The animals were placed by group of 2 in an open field measuring 90 cm×90 cm for a 10-min period, and the time spent by the animals at a distance comprised between 2 and 5 cm was recorded and taken as a behavioral marker of social interaction.

[3] = normobaric and hyperbaric pressures of 1 to 4 atmospheres absolute; cited from earlier work
mu opioid receptor = molecular target: T2, mu opioid receptor (Rattus norvegicus, UniProt P33535); experiment: [3H]-DAMGO binding in rat whole-brain membrane protein preparations; conditions: 100 vol % argon compared to 100 vol % nitrogen
T2 construct: Membrane preparations were obtained from whole brains of rats untreated (n=4); from tissue; host or cells: rat whole brain membranes
T2 sequence (P33535 whole entry): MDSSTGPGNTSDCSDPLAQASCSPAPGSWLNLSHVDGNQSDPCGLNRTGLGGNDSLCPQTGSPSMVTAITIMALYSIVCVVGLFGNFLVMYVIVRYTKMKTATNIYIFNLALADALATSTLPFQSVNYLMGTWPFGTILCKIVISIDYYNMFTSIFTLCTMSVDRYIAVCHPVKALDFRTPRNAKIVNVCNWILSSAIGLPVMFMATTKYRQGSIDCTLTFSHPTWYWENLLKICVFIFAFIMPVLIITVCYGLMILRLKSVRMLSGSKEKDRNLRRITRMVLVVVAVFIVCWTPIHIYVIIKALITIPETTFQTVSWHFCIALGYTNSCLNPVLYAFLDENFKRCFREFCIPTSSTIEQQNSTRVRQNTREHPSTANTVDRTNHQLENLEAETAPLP
Method: Membrane preparations were obtained from whole brains of rats untreated (n=4). The brains were crushed and homogenized in TRIS-HCl 50 mM buffer. After centrifugation, the bases of the vials were suspended in the same volume of TRIS-HCl buffer (×2). When the membrane preparation was obtained, the proteins were quantified to prepare in fine a solution at 1 mg/ml. Proteins were quantified using a BCA protein assay. Then, binding studies were performed as follows: solutions to allow calculating total binding were prepared by adding 385 μL of a TRIS-HCl buffer to 330 μL of proteins and 385 μL of [^3H]-DAMGO at decreasing concentrations (n=2 per dose, N=12). Solutions to allow calculating non-specific binding were prepared in the same fashion with naloxone instead of buffer. The vials containing these solutions were left open and placed in a closed chamber to allow saturating the solutions with 100 vol % nitrogen or argon. 1000 μL of each vial were placed in a 24-well plate coated with polyethylenimine. After drying, 100 μL scintillant was added to allow counting radioactivity (×3). Specific binding was obtained by subtracting non-specific binding to total binding, and Bmax, Kd, and Bmax×1/Kd (mu receptor activity) were calculated.

Sprague-Dawley rats [4] = experiment: Time in central area of open field after electric shock conditioning; format: in vivo, rat; conditions: argon 75 vol % 3 h day 4 to day 6 vs air; recorded on days 4 to 6 and on day 8; P<0.05
Method: In a second series of experiments, from day 1 to day 3, additional male Sprague-Dawley rats (n=6 per group) were placed for 10 min in an open field measuring 90 cm×90 cm, which central area measuring 50 cm×50 cm was equipped for delivering an electric shock to the animals that stayed more than 5 s in the area. From day 4 to day 6, the animals were treated for 3 h with medical air or argon at 75 vol % at a flow rate of 5 L/min in a closed chamber. Immediately after being treated with either air or argon from day 4 to day 6, and on day 8, rats were placed in the open field, and recorded during a 10-min period for the time that they spent in the central area whose electrical circuit was switched off.

Sprague-Dawley rats [5] = experiment: Social interaction in open field; format: in vivo, rat; conditions: argon 75 vol % 3 h day 1 to day 3 vs air; recorded after treatment on days 1 to 3 and on day 7; P<0.05
Method: as §1

[6] = system: spontaneously hypertensive rats; experiment: Locomotor activity in spontaneously hypertensive rats (ADHD model); format: in vivo, rat; conditions: argon 75 vol % 3 h daily day 1 to day 3 vs medical air; recorded on day 7; P<0.02
Method: Male spontaneously hypertensive rats (n=7-8 per group), known to show spontaneous locomotor hyperactivity and used as a model for the attention deficit and hyperactivity disorder (ADHD), were treated daily from day 1 to day 3 for 3 h with ‘medical’ air (composed of 75 vol % nitrogen and 25 vol % oxygen) or argon at 75 vol % (with the remainder being oxygen) at a flow rate of 5 L/min in a closed chamber. On day 7, rats were habituated to the activity boxes for 1 h before being recorded for locomotor activity for 1 h 30 min as detailed previously (David et al., Neuropharmacol., 2004).

[7] = system: type A γ-aminobutyric acid (GABA) and benzodiazepine receptors; conditions: pressure of around 15 atmospheres absolute; cited from earlier work

Compound: [Ar] [argon]
- effect on Peak 2 KCl-evoked dopamine release ([1]; amphetamine in the presence of air or argon, KCl 100 mM): lack of effect
- effect on amphetamine-induced reduction in Peak 3 (P3) KCl-evoked dopamine release ([1]; argon 75 vol % vs air, with amphetamine, KCl 100 mM, P<0.02): further potentiates the reduction
- effect on amphetamine-induced increase in carrier-mediated dopamine release ([1]; argon 75 vol % vs air, with amphetamine, rat nucleus accumbens slices, P<0.02): decreases the facilitating action of amphetamine
- number of righting reflex when handled abdomen side up (Sprague-Dawley rats [2]): reduced number of righting reflex
- side effects of breathing argon [3]: no or minimal side effect
- 1/Kd (affinity) of DAMGO binding (mu opioid receptor): trend toward reduction
- decrease in mu receptor activity (Bmax×1/Kd) (mu opioid receptor; P<0.05): 60%
- decrease of Bmax (number of receptors) of DAMGO binding (mu opioid receptor; membrane protein preparations): 15%
- time spent in central area of the open field (Sprague-Dawley rats [4]): penetrated the central area of the open field to a greater extent
- social interactions (Sprague-Dawley rats [5]): increased number of social interactions
- locomotor activity [6]: lower locomotor activity
- action at type A GABA and benzodiazepine receptors [7]: acts as an agonist
